Here are results for 21 molecules from ChEMBL document CHEMBL1139297, “Synthesis and stereochemical effects of pyrrolidinyl-acetylenic thieno[3,2-d]pyrimidines as EGFR and ErbB-2 inhibitors” (Bioorg Med Chem Lett, 2009).

In assay [1] the target is T1, Epidermal growth factor receptor (Homo sapiens, UniProt P00533). The assay is described as follows: Inhibition of EGFR by HTRF assay. (In general: TR-FRET usually uses a lanthanide donor and a delayed reading to cut background.)
The next assay deals with BT-474. The assay is described as follows: Antiproliferative activity against human BT474 cells overexpressing ERBb2 after 3 days by methylene blue staining. Conditions: BT-474, 72 h. In kind it is functional, cell-based.
The target of assay [2] is T2, Receptor tyrosine-protein kinase erbB-2 (Homo sapiens, UniProt P04626). The assay is described as follows: Inhibition of ERBb2 by HTRF assay.
T2 sequence (P04626 whole entry): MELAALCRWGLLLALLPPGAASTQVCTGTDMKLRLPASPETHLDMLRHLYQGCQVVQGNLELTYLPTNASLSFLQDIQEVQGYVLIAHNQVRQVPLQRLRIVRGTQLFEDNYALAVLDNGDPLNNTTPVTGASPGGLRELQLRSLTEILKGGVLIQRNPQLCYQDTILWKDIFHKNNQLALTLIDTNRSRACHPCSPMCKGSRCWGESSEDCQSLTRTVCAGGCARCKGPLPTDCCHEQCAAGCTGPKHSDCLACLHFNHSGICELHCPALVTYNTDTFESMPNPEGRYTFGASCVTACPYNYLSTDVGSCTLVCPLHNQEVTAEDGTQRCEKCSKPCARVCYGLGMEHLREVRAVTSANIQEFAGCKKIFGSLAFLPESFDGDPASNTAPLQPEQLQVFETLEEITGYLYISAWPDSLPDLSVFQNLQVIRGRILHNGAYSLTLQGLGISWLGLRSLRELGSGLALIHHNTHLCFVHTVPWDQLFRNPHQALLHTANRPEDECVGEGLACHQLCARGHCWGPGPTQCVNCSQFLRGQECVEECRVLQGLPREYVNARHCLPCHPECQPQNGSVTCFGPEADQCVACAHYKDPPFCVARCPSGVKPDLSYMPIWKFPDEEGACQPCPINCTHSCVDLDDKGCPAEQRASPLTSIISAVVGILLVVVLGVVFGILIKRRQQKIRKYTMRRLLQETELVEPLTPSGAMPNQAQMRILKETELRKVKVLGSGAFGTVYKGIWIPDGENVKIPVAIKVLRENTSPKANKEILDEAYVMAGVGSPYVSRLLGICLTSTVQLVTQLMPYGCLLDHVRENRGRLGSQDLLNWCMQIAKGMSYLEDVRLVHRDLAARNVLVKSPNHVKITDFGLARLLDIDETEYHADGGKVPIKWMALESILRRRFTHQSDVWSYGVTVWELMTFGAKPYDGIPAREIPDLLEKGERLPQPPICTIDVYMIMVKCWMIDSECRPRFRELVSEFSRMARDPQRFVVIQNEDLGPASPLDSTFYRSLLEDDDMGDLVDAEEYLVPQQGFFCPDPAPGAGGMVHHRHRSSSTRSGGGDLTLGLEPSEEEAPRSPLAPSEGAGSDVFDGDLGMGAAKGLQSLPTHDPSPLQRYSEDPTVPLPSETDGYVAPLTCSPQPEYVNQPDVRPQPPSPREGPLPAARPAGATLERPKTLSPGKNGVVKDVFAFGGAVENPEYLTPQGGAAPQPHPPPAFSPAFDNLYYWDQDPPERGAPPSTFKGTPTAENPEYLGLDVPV
The next assay deals with HN5. The assay is described as follows: Antiproliferative activity against human HN5 cells overexpressing EGFR after 3 days by methylene blue staining. Particulars: HN5, 72 h.
The next assay concerns HFF. The assay is described as follows: Antiproliferative activity against human HFF cells after 3 days by methylene blue staining. Conditions: 72 h.
Assay [3] deals with T1, Epidermal growth factor receptor. The assay is described as follows: Inhibition of EGFR by scintillation proximity assay. Background: In a scintillation proximity assay essentially only radioactivity close to the scintillant gives light.
Assay [4] concerns the target T2, Receptor tyrosine-protein kinase erbB-2. The assay is described as follows: Inhibition of ERBb2 by scintillation proximity assay.

T1 sequence (P00533 whole entry): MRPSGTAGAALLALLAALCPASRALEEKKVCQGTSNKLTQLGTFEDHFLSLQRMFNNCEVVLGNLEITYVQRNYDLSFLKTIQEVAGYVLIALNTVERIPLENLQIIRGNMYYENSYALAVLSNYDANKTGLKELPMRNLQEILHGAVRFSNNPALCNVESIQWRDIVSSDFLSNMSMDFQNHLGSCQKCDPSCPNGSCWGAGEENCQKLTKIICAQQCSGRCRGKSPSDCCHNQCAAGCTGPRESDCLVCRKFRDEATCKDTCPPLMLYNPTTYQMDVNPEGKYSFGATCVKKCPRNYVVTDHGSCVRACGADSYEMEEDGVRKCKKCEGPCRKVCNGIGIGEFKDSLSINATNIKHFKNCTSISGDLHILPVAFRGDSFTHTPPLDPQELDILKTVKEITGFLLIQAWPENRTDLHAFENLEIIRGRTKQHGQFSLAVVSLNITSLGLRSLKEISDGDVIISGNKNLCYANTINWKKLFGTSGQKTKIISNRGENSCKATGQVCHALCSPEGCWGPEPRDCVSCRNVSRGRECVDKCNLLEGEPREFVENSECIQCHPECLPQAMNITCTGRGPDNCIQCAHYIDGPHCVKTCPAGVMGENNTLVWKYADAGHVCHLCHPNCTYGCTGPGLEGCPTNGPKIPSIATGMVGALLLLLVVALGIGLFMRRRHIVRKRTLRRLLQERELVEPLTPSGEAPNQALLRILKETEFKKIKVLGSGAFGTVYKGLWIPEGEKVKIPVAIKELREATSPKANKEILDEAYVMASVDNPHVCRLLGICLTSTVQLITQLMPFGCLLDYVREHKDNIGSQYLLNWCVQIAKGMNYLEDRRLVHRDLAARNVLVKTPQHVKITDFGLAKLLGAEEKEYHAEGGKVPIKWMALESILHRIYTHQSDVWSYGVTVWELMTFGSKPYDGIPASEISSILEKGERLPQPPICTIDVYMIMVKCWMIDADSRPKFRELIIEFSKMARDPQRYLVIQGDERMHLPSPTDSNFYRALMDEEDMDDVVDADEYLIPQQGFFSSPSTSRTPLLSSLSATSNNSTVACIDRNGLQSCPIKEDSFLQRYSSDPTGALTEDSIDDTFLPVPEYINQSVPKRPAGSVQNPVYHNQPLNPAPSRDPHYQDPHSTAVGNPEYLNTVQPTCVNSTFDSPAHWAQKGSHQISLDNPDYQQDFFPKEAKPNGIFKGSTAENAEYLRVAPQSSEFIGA

A word on the IC50: it is the concentration that inhibits the measured activity by half. The term EC50 denotes the midpoint of the concentration-response curve. High values mean weaker potency, low ones greater potency. In assay [1], `CCNC(=O)O[C@@H]1CN[C@@H](C#Cc2cc3ncnc(Nc4ccc(OCc5cccc(F)c5)c(Cl)c4)c3s2)C1` registered an IC50 of 50 nM. This molecule also yielded an EC50 in the assay with BT-474 of 60 nM.

Take `CN(C)C(=O)O[C@@H]1CN[C@H](C#Cc2cc3ncnc(Nc4ccc(OCc5cccc(F)c5)c(Cl)c4)c3s2)C1`: in the assay on BT-474, the EC50 worked out at 230 nM.

For the molecule `CS(=O)(=O)CCNC(=O)O[C@H]1CN[C@H](C#Cc2cc3ncnc(Nc4ccc(OCc5cccc(F)c5)c(Cl)c4)c3s2)C1`, the IC50 in assay [1] is 40 nM; in assay [2] it was 32 nM. The 50% effective concentration (EC50) with HN5 amounted to 30 nM; in the assay with BT-474 it was 290 nM; with HFF it was 8.2 µM.

Consider `O=C(O[C@H]1CN[C@H](C#Cc2cc3ncnc(Nc4ccc(OCc5cccc(F)c5)c(Cl)c4)c3s2)C1)N1CCOCC1` [GW869810X], for which the results for the EC50 in the assay on BT-474 and with HFF were 30 nM and 4.9 µM, respectively.

Consider `NC(=O)O[C@H]1CN[C@H](C#Cc2cc3ncnc(Nc4ccc(OCc5cccc(F)c5)c(Cl)c4)c3s2)C1`, for which the IC50 in assay [1] amounted to 40 nM; in assay [2] it was 16 nM. Besides, the EC50 in the assay on HN5 was determined as 100 nM; in the assay with BT-474 it was 25 nM; in the assay on HFF it was 5.5 µM.

Take `CNC(=O)O[C@H]1CN[C@H](C#Cc2cc3ncnc(Nc4ccc(OCc5cccc(F)c5)c(Cl)c4)c3s2)C1`: the values for the EC50 in the assay on HN5, in the assay on BT-474 and with HFF were 60 nM, 30 nM and 5 µM, respectively.

Consider `CCNC(=O)O[C@@H]1CN[C@H](C#Cc2cc3ncnc(Nc4ccc(OCc5cccc(F)c5)c(Cl)c4)c3s2)C1`, for which, in the assay with BT-474, it took 130 nM to reach a half-maximal effect (EC50).

Take `CN(C)C(=O)O[C@H]1CN[C@@H](C#Cc2cc3ncnc(Nc4ccc(OCc5cccc(F)c5)c(Cl)c4)c3s2)C1`: the EC50 in the assay on BT-474 came out at 10 nM.

For `CCNC(=O)O[C@H]1CN[C@H](C#Cc2cc3ncnc(Nc4ccc(OCc5cccc(F)c5)c(Cl)c4)c3s2)C1` [GSK-192082A], the values for the EC50 in the assay with HN5, in the assay with BT-474 and in the assay with HFF were 95 nM, 30 nM and 4.2 µM, respectively.

On to `C=CC(=O)Nc1cc2c(Nc3ccc(F)c(Cl)c3)ncnc2cc1OCCCN1CCOCC1` [CANERTINIB], for which the EC50 in the assay on HN5 came out at 50 nM; in the assay on BT-474 it was 10 nM.

For the molecule `CN(C)C(=O)O[C@H]1CN[C@H](C#Cc2cc3ncnc(Nc4ccc(OCc5cccc(F)c5)c(Cl)c4)c3s2)C1` [GSK-182497A], the EC50 is 30 nM with BT-474 and 2.8 µM in the assay on HFF.

`CCN(C)C(=O)O[C@H]1CN[C@H](C#Cc2cc3ncnc(Nc4ccc(OCc5cccc(F)c5)c(Cl)c4)c3s2)C1`: the IC50 in assay [1] was 50 nM; in assay [2] it was 32 nM. Further, the values for the EC50 in the assay on HN5, in the assay with BT-474 and in the assay on HFF were 240 nM, 90 nM and 3 µM, respectively.

Take `CCN(CC)C(=O)O[C@H]1CN[C@H](C#Cc2cc3ncnc(Nc4ccc(OCc5cccc(F)c5)c(Cl)c4)c3s2)C1`: the EC50 is 250 nM in the assay with HN5, 80 nM in the assay on BT-474 and 4.3 µM in the assay on HFF. The IC50 stood at 63 nM in assay [3] and 50 nM in assay [4].

Take `O=C(O[C@@H]1CN[C@@H](C#Cc2cc3ncnc(Nc4ccc(OCc5cccc(F)c5)c(Cl)c4)c3s2)C1)N1CCOCC1`: the EC50 in the assay on BT-474 is 50 nM.

For `O=C(O[C@@H]1CN[C@H](C#Cc2cc3ncnc(Nc4ccc(OCc5cccc(F)c5)c(Cl)c4)c3s2)C1)N1CCOCC1`, the midpoint of the response with BT-474, the EC50, lay at 140 nM.

With `O=C(O[C@H]1CN[C@H](C#Cc2cc3ncnc(Nc4ccc(OCc5cccc(F)c5)c(Cl)c4)c3s2)C1)N1CCCC1`, the EC50 is 120 nM in the assay on HN5, 60 nM in the assay with BT-474 and 3.5 µM with HFF. Further, the IC50 in assay [3] turned out to be 99 nM; in assay [4], 32 nM.

Regarding `O=C(O[C@H]1CN[C@@H](C#Cc2cc3ncnc(Nc4ccc(OCc5cccc(F)c5)c(Cl)c4)c3s2)C1)N1CCOCC1`, the EC50 in the assay with BT-474 was 120 nM.

As to `O=C(O[C@H]1CN[C@H](C#Cc2cc3ncnc(Nc4ccc(OCc5cccc(F)c5)c(Cl)c4)c3s2)C1)N1CCNCC1`, the IC50 in assay [1] stood at 63 nM; in assay [2], 20 nM. Further, the EC50 with HN5 is 400 nM; in the assay on BT-474, 100 nM; with HFF, 5.1 µM.

For `CS(=O)(=O)CCNCc1ccc(-c2ccc3ncnc(Nc4ccc(OCc5cccc(F)c5)c(Cl)c4)c3c2)o1` [LAPATINIB DITOSYLATE], a half-maximal effect in the assay with BT-474 (EC50) was put at 20 nM.

In assay [1], `CCNC(=O)O[C@H]1CN[C@@H](C#Cc2cc3ncnc(Nc4ccc(OCc5cccc(F)c5)c(Cl)c4)c3s2)C1` gave an IC50 of 32 nM. The EC50 with BT-474 was 20 nM.

Turning to `CN(C)C(=O)O[C@@H]1CN[C@@H](C#Cc2cc3ncnc(Nc4ccc(OCc5cccc(F)c5)c(Cl)c4)c3s2)C1` [GSK-238063A], in the assay on BT-474, the midpoint of the response, the EC50, lay at 30 nM.
